Laboratory results reported in a melting point compilation (Tetko et al.; mined from patent text by program, amines drawn as free bases though some values may be those of a salt).

SMILES | melting point [°C]
CCOC(=O)CCc1nc2cc3c(cc2[nH]1)NC(=O)C3(C)C | 194 to 196
CCCCN(CCCC)Cc1nc(-c2ncn3c2CN(C)C(=O)c2cc(F)ccc2-3)no1 | 137 to 140
O=C(O)c1cc(COc2ccccc2)cc(Cn2cc(C3c4ccccc4C=Cc4ccccc43)c(=S)[nH]c2=O)c1 | 160 to 165
COC(=O)N(CC(=O)O)C(=O)c1cccc2c(C(F)(F)F)c(OC)ccc12 | 148 to 150
CC(Br)(CC(Cl)(Cl)Cl)c1cccc(Cl)n1 (stereo unspecified) | 42 to 45
S=c1[nH]nnn1CCN1CCOCC1 | 226 to 228
COC(=O)CC1c2cc(N(C)C)ccc2N(C(C)=O)C1C (stereo unspecified) | 122
CCCCCNC(=O)N(C)c1cccc(-c2ccc(/C=C(\OCC)C(=O)O)cc2)n1 | 162
CCCn1nc(C(C)C)c(C(=O)OCc2ccccc2C(=O)c2ccccc2)c1Cc1ccc(-c2ccccc2S(N)(=O)=O)c(F)c1 | 49 to 51
CC(C)(C)c1ccc(Nc2ncc(-c3ccnc(Cl)n3)c3ccccc23)cc1 | 257 to 258
COc1ncc(C(F)(F)F)cc1-c1cccn2nc(Cl)nc12 | 183 to 185
Cc1ccn2c(-c3ccnc(-c4ccc(OCC(N)=O)cc4)c3)c(-c3cccc(C)n3)nc2c1 | 213
CC(C)(C)NCCCOc1ccccc1Cc1cccc2[nH]ccc12 | 96
Nc1nnc(-c2ccnc3[nH]c(CCc4ccccc4)cc23)o1 | 234 to 235
CC(C)(C)[N+]([O-])=Cc1cc([N+](=O)[O-])ccc1O | 172
CC=CCn1c(C)c(C)c2cnnc(SCc3ccc(F)cc3F)c21 | 122 to 127
COc1ccc(CNC(=O)C(=O)NCCc2ccccn2)cc1 | 156 to 158
CC12CC3OC3CC1CCC1C2CCC2(C)C(O)C(N3CCC(O)CC3)CC12 (stereo unspecified) | 204 to 206

SMILES | melting point [°C]
Cc1nc(-c2ccc(C(F)(F)F)cc2)sc1CSc1ccc(CC(=O)O)cc1 | 202 to 203
CC(C)n1cnc2c(Nc3cccc(F)c3)nc(NCCO)nc21 | 142
CCOC(=O)c1cc2cc(C)c(C(F)(F)F)cc2n1[C@H](C)CNC(=O)OC(C)(C)C | 103 to 105
COC(=O)c1ccc(CCCOCCCCCCNCC(O)c2ccc(O)c(CO)c2)cc1 (stereo unspecified) | 43 to 45
C[C@H](CO)NC1=NS(=O)(=O)c2sc(Cl)cc2N1 | 203 to 204
CCOC(=O)c1nnc2ccc(I)cc2c1O | 242 to 244
O=C(NCCCO)c1c([N+](=O)[O-])ccc(N(CCBr)CCBr)c1[N+](=O)[O-] | 115 to 117
O=c1[nH]c2cc([N+](=O)[O-])c(S(=O)(=O)NCCO)cc2[nH]c1=O | 281 to 289
CC(CCN(C)c1ccc(Cl)cc1)NCC(O)c1ccc(O)c(C(N)=O)c1 (stereo unspecified) | 127 to 129
CC(=O)Nc1c(C)cc(OC(C)=O)c(C)c1C | 174 to 175
CCCCCCCCCCCCCCCCCCOC(=O)c1ccc(CBr)cc1 | 53 to 55
CC(CCNC(=O)C(C#N)=Cc1ccc(O)c(O)c1)NC(=O)C(C#N)=Cc1ccc(O)c(O)c1 (stereo unspecified) | 281
CC#CCCCCCCCCCCCC | 36 to 37
CC(C)(C)NCC(O)COc1ccc2c(=O)cc(-c3cc(OCc4ccccc4)cc(OCc4ccccc4)c3)oc2c1 (stereo unspecified) | 170 to 171
CCCCNc1cc(C(=O)O)cc(S(C)=O)c1Cl (stereo unspecified) | 158
O=C(Oc1ccc2cc(CN3CCCC3)ccc2c1)N1CCC(c2ccc(Cl)cc2)CC1 | 121 to 123
CCCCCCCCCCCCCCCCCC(=O)NCC(O)C(C)(O)CCCC(C)CCCC(C)CCCC(C)C (stereo unspecified) | 47 to 48

Continued, values first:

melting point [°C] | SMILES
176 to 177 | Cc1ccc(N2CCN(Cc3n[nH]c4c(F)cccc34)CC2)cc1
90 to 92 | CN1CCN(C2=C3CSCC34CC(=CC#N)C=CC4=NC=C2)CC1 (stereo unspecified)
134 | CN(Cc1cc(-c2ccc(CC3SC(=O)NC3=O)cc2)cs1)C(=O)c1ccccc1 (stereo unspecified)
264 to 266 | O=C(O)c1ccc(Nc2c(C(=O)O)cc(Cl)cc2[N+](=O)[O-])cc1
86 to 87 | O=[N+]([O-])c1c(NCC23CCCN2CCC3)ccc2ccccc12
275 to 277 | O=C1NCc2c1cc1ccc3c(c1c2-c1ccc2c(c1)OCO2)OCC3
210 to 220 | CCN1c2ccccc2NC(=O)c2cccnc21
133 to 134 | CC1CCCCN1CCNc1ccnc2cc(Cl)ccc12 (racemic)
282 to 284 | CN1CCN(c2ccc(Nc3nccc(-c4c[nH]nc4-c4ccc(Cl)cc4)n3)cc2)CC1
178 to 181 | COc1cc(NC(C)=O)c(Cl)cc1C(=O)NN1CCN(Cc2cccs2)CC1
214 | Cn1c(=O)n(SC(Cl)(Cl)Cl)n(-c2ccccc2)c1=O
148 to 149 | CC(=O)OCCn1ccc(=O)c(OCc2ccccc2)c1C(OC(C)=O)c1cccc(F)c1 (stereo unspecified)
136 to 139 | CCCCOc1ccc(C(=O)Nc2ccc3cc(C(C)N4CCCC4)cnc3c2C)cc1 (stereo unspecified)
232 to 234 | CC(C)(O)Cn1c(CONS(C)(=O)=O)nc2c(N)nc3ccccc3c21
187 to 188 | CC(C)c1ccccc1Sc1c(O)cc(-c2ccc(OCC3CCCCC3)cc2)oc1=O
236 to 239 | O=C(O)CN1C(=O)C(=Cc2ccc(OCc3ccc(F)cc3F)c(OCc3ccccc3)c2)SC1=S
112 | CCOC(=O)Cc1cc2c(N=C3SC[C@@H]4Cc5ccccc5CN34)cccc2cn1
190 | O=c1[nH]c(CCN2CCN(c3nsc4ccccc34)CC2)cs1

melting point [°C] | SMILES
298 to 300 | O=c1[nH]c2cc(Cl)ccc2c(O)c1-c1ccccc1[N+](=O)[O-]
180 to 183 | O=C1NC(=Cc2ccccc2F)C(=O)N1c1cc(F)ccc1F
> 200 | O=C(Nc1cccnc1)N1CCc2cc(I)c(Cl)cc21
91 to 93 | O=C(O)COc1c(F)cc(SCCNS(=O)(=O)c2ccccc2)cc1F
169 to 170 | CN1C(=N)N(c2ccccc2)CC1=O
104 to 107 | CN(C)CC(=O)N1Cc2cccc3c2N(CC3)c2ccccc21
52 to 54 | Cc1c(OCc2ccccc2)ccc2cncn12
187 to 190 | O=C(O)c1ccc2c(c1)COC2c1ccc(F)cc1 (stereo unspecified)
259 to 262 | CCOC(=O)C1=C(C)Nc2n[nH]cc2C1c1ccccc1C(F)(F)F (stereo unspecified)
36 to 37 | CC(=O)OCc1c(Br)cccc1[N+](=O)[O-]
90 to 91 | Cc1ccc(S(=O)(=O)OCC2CCc3ncsc3C2)cc1 (stereo unspecified)
132 | C=CCn1c2c(c3ccccc31)C(=O)C(Cn1ccnc1C)CC2 (stereo unspecified)
84 to 85 | Cc1ccc(C)c(C(C)Sc2cc(C)c3ccccc3n2)c1 (stereo unspecified)
119 to 123 | O=C1C=C2CN(C(C(=O)C3CC3)c3ccccc3Cl)CCC2S1 (stereo unspecified)
214 to 216 | Fc1ccc(N2CCN(Cc3c[nH]c4ncccc34)CC2)cc1
132 to 134 | Cn1ccnc1C(=O)Nc1ccc(-n2nc(C(F)(F)F)cc2C2CC2)cc1
68 to 70 | Cc1cccc(C2OCC(OCc3ccccc3)CO2)c1 (stereo unspecified)
170 to 172 | CSCCC(S)C(=O)NC1(C(=O)NC(Cc2ccc(-c3ccsc3)nc2)C(=O)O)CCCC1 (stereo unspecified)
